According to ChEMBL document CHEMBL4340502, “Anti-biofilm and anti-adherence properties of novel cyclic dipeptides against oral pathogens” (Bioorg Med Chem, 2019):
Converted amounts (≈) assume the structure as drawn. The source made the active and inactive calls. Unless noted, the rule behind the calls is not given here.

Columns and labels:
Actinomyces naeslundii [1] = assay: Antibiofilm activity against Actinomyces naeslundii ATCC 49340 assessed as prevention of homogenous biofilm formation up to 96 ug/mL after 24 hrs by crystal violet staining based assay; format: functional, organism-based
Streptococcus mutans [2] = assay: Antiadherence activity in FITC-labelled Streptococcus mutans ATCC 25175 assessed as reduction in bacterial adhesion to hydroxylapatite up to 96 ug/mL after 1 hr fluorescence assay; format: functional, organism-based
Staphylococcus aureus = assay: Growth inhibition of Staphylococcus aureus ATCC 6538 incubated for 24 hrs under aerobic condition by microdilution method; format: organism-based; settings: in vitro
Listeria monocytogenes = assay: Growth inhibition of Listeria monocytogenes WSLC 1001 incubated for 24 hrs under aerobic condition by microdilution method; format: organism-based; settings: in vitro
Streptococcus mutans [3] = assay: Inhibition of planktonic growth of Streptococcus mutans ATCC 25175 up to 96 ug/mL after 24 hrs relative to control; format: organism-based
Fusobacterium nucleatum = assay: Antibiofilm activity against Fusobacterium nucleatum ATCC 25586 assessed as inhibition of biofilm formation up to 96 ug/mL after 24 hrs by crystal violet staining based assay; format: functional, organism-based
Candida albicans [4] = assay: Antibiofilm activity against Candida albicans ATCC 28366 assessed as reduction of biofilm formation at 24 to 48 ug/mL after 24 hrs by crystal violet staining based assay; format: functional, organism-based
Pseudomonas aeruginosa = assay: Growth inhibition of Pseudomonas aeruginosa ATCC 10145 incubated for 24 hrs under aerobic condition by microdilution method; format: organism-based
Actinomyces naeslundii [5] = assay: Antibiofilm activity against Actinomyces naeslundii ATCC 49340 assessed as reduction of biofilm formation at 48 ug/mL after 24 hrs by crystal violet staining based assay; format: functional, organism-based
Candida albicans [6] = assay: Antibiofilm activity against Candida albicans ATCC 28366 assessed as reduction of biofilm formation after 24 hrs by crystal violet staining based assay; format: functional, organism-based
Streptococcus mutans [7] = assay: Antibiofilm activity against Streptococcus mutans ATCC 25175 assessed as inhibition of biofilm formation at 6 to 12 ug/mL after 24 hrs by crystal violet staining-based assay; format: functional, organism-based
Candida albicans [8] = assay: Disruption of Candida albicans ATCC 28366 pre-formed mature biofilm assessed as reduction in biofilm biomass at 96 ug/mL after 12 hrs by crystal violet staining based assay; format: functional, organism-based
Streptococcus mutans [9] = assay: Disruption of Streptococcus mutans ATCC 25175 pre-formed mature biofilm assessed as reduction in biofilm biomass at 96 ug/mL after 12 hrs by crystal violet staining based assay; format: functional, organism-based
Actinomyces naeslundii [10] = assay: Antibiofilm activity against Actinomyces naeslundii ATCC 49340 assessed as inhibition of bacterial adhesion up to 96 ug/mL after 24 hrs by crystal violet staining based assay; format: functional, organism-based
Streptococcus mutans [11] = assay: Antibiofilm activity against Streptococcus mutans ATCC 25175 assessed as inhibition of biofilm formation up to 96 ug/mL after 24 hrs by crystal violet staining-based assay; format: functional, organism-based
Escherichia coli = assay: Growth inhibition of Escherichia coli ATCC 15939 incubated for 24 hrs under aerobic condition by microdilution method; format: organism-based
Candida albicans [12] = assay: Antiadherence activity against FITC-labelled Candida albicans ATCC 28366 assessed as reduction in bacterial adhesion to hydroxylapatite up to 96 ug/mL after 1 hr by fluorescence assay relative to control; format: functional
Porphyromonas gingivalis = assay: Antibiofilm activity against Porphyromonas gingivalis ATCC 33277 assessed as inhibition of biofilm formation up to 96 ug/mL after 24 hrs by crystal violet staining based assay; format: functional, organism-based
Candida albicans [13] = assay: Growth inhibition of Candida albicans ATCC 28366 up to 96 ug/ml measured after 24 hrs by microdilution method; format: organism-based; settings: in vitro
[14] = test system: Limosilactobacillus fermentum; assay: Antibiofilm activity against Lactobacillus fermentum LacB1 assessed as inhibition of biofilm formation up to 96 ug/mL after 24 hrs by crystal violet staining based assay; format: functional, organism-based
Actinomyces naeslundii [15] = assay: Antibiofilm activity against Actinomyces naeslundii ATCC 49340 assessed as reduction of biofilm formation by visual analysis; format: functional, organism-based
Enterococcus faecalis = assay: Antimicrobial activity against vancomycin-resistant Enterococcus faecalis measured after 24 hrs by agar-dilution method; format: functional
[16] = Solubility of the compound in water; format: physicochemical; settings: buffer
Actinomyces naeslundii [17] = assay: Antibiofilm activity against Actinomyces naeslundii ATCC 49340 assessed as prevention of homogenous biofilm formation at 96 ug/mL after 24 hrs by crystal violet staining-based assay; format: functional, organism-based

| Compound | MIC (Staphylococcus aureus) [µg/mL] | MIC (Listeria monocytogenes) [µg/mL] | growth inhibition (GI) (Streptococcus mutans [3]) | inhibition (Fusobacterium nucleatum) | MIC (Pseudomonas aeruginosa) [µg/mL] | inhibition (Streptococcus mutans [11]) | MIC (Escherichia coli) [µg/mL] | inhibition (Porphyromonas gingivalis) | inhibition [14] | also measured |
| --- | --- | --- | --- | --- | --- | --- | --- | --- | --- | --- |
| O=C1N[C@@H](Cc2ccc(OCc3ccccc3)cc2)C(=O)N[C@H]1Cc1ccc(OCc2ccccc2)cc1 | > 192 | > 192 | Non-Toxic | inactive | > 192 | Active | > 192 | inactive | inactive | Activity (Actinomyces naeslundii [1]): Active; Activity (Streptococcus mutans [2]): Active; Activity (Candida albicans [4]): Active; inhibition (Actinomyces naeslundii [5]): Active; Activity (Candida albicans [6]): Dose-dependent effect; Activity (Streptococcus mutans [7]): Active; Activity (Candida albicans [8]): inactive; Activity (Streptococcus mutans [9]): inactive; inhibition (Actinomyces naeslundii [10]): inactive; Activity (Candida albicans [12]): Active; growth inhibition (GI) (Candida albicans [13]): Non-Toxic; inhibition (Actinomyces naeslundii [15]): Active |
| CC(C)C[C@@H]1NC(=O)[C@@H]2CCCN2C1=O |  |  | Non-Toxic | inactive |  | inactive |  | inactive |  | MIC (Enterococcus faecalis): 12.5 µg/mL (≈ 59.4 µM) |
| O=C1N[C@H](Cc2ccccc2)C(=O)N[C@H]1Cc1ccccc1 | > 192 | > 192 | Non-Toxic | inactive | > 192 | inactive | > 192 | inactive | inactive |  |
| O=C1N[C@H](Cc2ccccc2)C(=O)N[C@H]1Cc1ccc(OCc2ccccc2)cc1 | > 192 | > 192 | Non-Toxic | inactive | > 192 | Active | > 192 | inactive | inactive | Activity (Actinomyces naeslundii [1]): Active; Activity (Streptococcus mutans [2]): Active; Activity (Candida albicans [4]): Active; inhibition (Actinomyces naeslundii [5]): Active; Activity (Candida albicans [6]): Dose-dependent effect; Activity (Streptococcus mutans [7]): Active; Activity (Candida albicans [8]): inactive; Activity (Streptococcus mutans [9]): inactive; inhibition (Actinomyces naeslundii [10]): inactive; Activity (Candida albicans [12]): Active; growth inhibition (GI) (Candida albicans [13]): Non-Toxic; inhibition (Actinomyces naeslundii [15]): Active |
| O=C1N[C@H](Cc2ccccc2)C(=O)N[C@@H]1Cc1ccccc1 | > 192 | > 192 | Non-Toxic | inactive | > 192 | inactive | > 192 | inactive | inactive |  |
| O=C1N[C@H](Cc2ccc(OCc3ccccc3)cc2)C(=O)N[C@H]1Cc1ccccc1 | > 192 | > 192 | Non-Toxic | inactive | > 192 | inactive | > 192 | inactive | inactive | solubility [16]: Insoluble |
| O=C1N[C@@H](Cc2ccccc2)C(=O)N[C@H]1Cc1ccccc1 | > 192 | > 192 | Non-Toxic | inactive | > 192 | inactive | > 192 | inactive | inactive |  |
| O=C1N[C@H](Cc2ccc(OCc3ccccc3)cc2)C(=O)N[C@@H]1Cc1ccccc1 | > 192 | > 192 | Non-Toxic | inactive | > 192 | Active | > 192 | inactive | inactive | Activity (Actinomyces naeslundii [1]): Active; Activity (Streptococcus mutans [2]): Active; Activity (Candida albicans [4]): Active; inhibition (Actinomyces naeslundii [5]): Active; Activity (Candida albicans [6]): Dose-dependent effect; Activity (Streptococcus mutans [7]): Active; Activity (Candida albicans [8]): inactive; Activity (Streptococcus mutans [9]): inactive; inhibition (Actinomyces naeslundii [10]): inactive; Activity (Candida albicans [12]): Active; growth inhibition (GI) (Candida albicans [13]): Non-Toxic; inhibition (Actinomyces naeslundii [15]): Active |
| CC(C)[C@@H]1NC(=O)[C@H](C(C)C)NC1=O |  |  | Non-Toxic | inactive |  | inactive |  | inactive |  |  |
| O=C1N[C@@H](Cc2ccc(OCc3ccccc3)cc2)C(=O)N[C@H]1Cc1ccccc1 | > 192 | > 192 | Non-Toxic | inactive | > 192 | Active | > 192 | inactive | inactive | Activity (Streptococcus mutans [2]): Active; Activity (Candida albicans [4]): Active; Activity (Candida albicans [6]): Dose-dependent effect; Activity (Streptococcus mutans [7]): Active; Activity (Candida albicans [8]): inactive; Activity (Streptococcus mutans [9]): inactive; Activity (Actinomyces naeslundii [17]): inactive; Activity (Candida albicans [12]): Active; growth inhibition (GI) (Candida albicans [13]): Non-Toxic |
| CC(C)[C@H]1NC(=O)[C@@H](C(C)C)NC1=O |  |  | Non-Toxic | inactive |  | inactive |  | inactive |  |  |
| CCC(C)[C@@H]1NC(=O)[C@H](COCc2ccccc2)NC1=O (stereo partly specified) |  |  | Non-Toxic | inactive |  | inactive |  | inactive |  |  |
| CC(C)C[C@H]1NC(=O)[C@@H](CC(C)C)NC1=O |  |  | Non-Toxic | inactive |  | inactive |  | inactive |  |  |
| O=C1N[C@H](Cc2ccc(OCc3ccccc3)cc2)C(=O)N[C@@H]1Cc1ccc(OCc2ccccc2)cc1 | > 192 | > 192 | Non-Toxic | inactive | > 192 | Active | > 192 | inactive | inactive | Activity (Actinomyces naeslundii [1]): Active; Activity (Streptococcus mutans [2]): Active; Activity (Candida albicans [4]): Active; inhibition (Actinomyces naeslundii [5]): Active; Activity (Candida albicans [6]): Dose-dependent effect; Activity (Streptococcus mutans [7]): Active; Activity (Candida albicans [8]): inactive; Activity (Streptococcus mutans [9]): inactive; inhibition (Actinomyces naeslundii [10]): inactive; Activity (Candida albicans [12]): Active; growth inhibition (GI) (Candida albicans [13]): Non-Toxic; inhibition (Actinomyces naeslundii [15]): Active |
| O=C1CNC(=O)[C@H](Cc2ccccc2)N1 |  |  | Non-Toxic | inactive |  | inactive |  | inactive |  |  |
| O=C1CNC(=O)[C@H](CCC(=O)OCc2ccccc2)N1 |  |  | Non-Toxic | inactive |  | inactive |  | inactive |  |  |
| O=C1[C@@H]2CCCN2C(=O)[C@@H]2CCCN12 |  |  | Non-Toxic | inactive |  | inactive |  | inactive |  |  |
| CC(C)C[C@@H]1NC(=O)[C@H](Cc2ccc([N+](=O)[O-])cc2)NC1=O |  |  | Non-Toxic | inactive |  | inactive |  | inactive |  |  |
